Laboratory results as given in article PMC8882856, “The affinity and selectivity of α‐adrenoceptor antagonists, antidepressants and antipsychotics for the human α2A, α2B, and α2C‐adrenoceptors and comparison with human α1 and β‐adrenoceptors” (Pharmacology Research & Perspectives, 2022).
Where two headings read alike, the source gives them in different places.

Key:
human β2‐adrenoceptor = human β2‐adrenoceptor (Homo sapiens, UniProt P07550); assay type: binding
human α2A‐adrenoceptor [1] = target: T1, human α2A‐adrenoceptor (Homo sapiens, UniProt P08913)
T1 sequence (P08913 1-465): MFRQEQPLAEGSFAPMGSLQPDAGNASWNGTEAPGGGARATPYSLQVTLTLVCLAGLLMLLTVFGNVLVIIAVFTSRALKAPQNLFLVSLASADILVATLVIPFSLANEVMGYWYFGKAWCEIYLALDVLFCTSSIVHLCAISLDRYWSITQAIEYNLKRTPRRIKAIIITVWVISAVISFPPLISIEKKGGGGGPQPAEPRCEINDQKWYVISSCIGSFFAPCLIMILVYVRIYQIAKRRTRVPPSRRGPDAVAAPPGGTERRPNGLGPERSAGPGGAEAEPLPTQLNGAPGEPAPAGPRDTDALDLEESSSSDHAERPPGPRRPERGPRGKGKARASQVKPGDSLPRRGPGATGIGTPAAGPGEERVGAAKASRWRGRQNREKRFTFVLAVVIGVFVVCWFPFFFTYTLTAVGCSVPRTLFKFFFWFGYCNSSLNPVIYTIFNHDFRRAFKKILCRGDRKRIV

human α2A‐adrenoceptor [2] = target: T1, human α2A‐adrenoceptor; test: ^3H‐rauwolscine whole cell competition binding, CHO‐α2A cells
human α2C‐adrenoceptor [3] = target: T2, human α2C‐adrenoceptor (Homo sapiens, UniProt P18825)
T2 sequence (P18825 1-462): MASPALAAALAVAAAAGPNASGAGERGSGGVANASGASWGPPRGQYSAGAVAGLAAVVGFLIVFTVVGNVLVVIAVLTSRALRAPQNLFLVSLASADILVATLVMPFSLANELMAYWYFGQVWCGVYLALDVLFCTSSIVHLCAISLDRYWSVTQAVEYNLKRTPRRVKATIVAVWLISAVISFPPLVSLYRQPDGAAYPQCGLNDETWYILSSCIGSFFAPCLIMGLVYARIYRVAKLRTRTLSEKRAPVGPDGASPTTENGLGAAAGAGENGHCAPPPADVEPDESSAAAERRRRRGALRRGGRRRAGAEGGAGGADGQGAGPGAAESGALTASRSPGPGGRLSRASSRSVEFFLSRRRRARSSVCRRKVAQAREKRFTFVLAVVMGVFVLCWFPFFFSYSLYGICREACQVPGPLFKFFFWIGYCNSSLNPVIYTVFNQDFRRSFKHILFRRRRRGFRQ

human α2B‐adrenoceptor [4] = target: T3, human α2B‐adrenoceptor (Homo sapiens, UniProt P18089)
T3 sequence (P18089 1-450): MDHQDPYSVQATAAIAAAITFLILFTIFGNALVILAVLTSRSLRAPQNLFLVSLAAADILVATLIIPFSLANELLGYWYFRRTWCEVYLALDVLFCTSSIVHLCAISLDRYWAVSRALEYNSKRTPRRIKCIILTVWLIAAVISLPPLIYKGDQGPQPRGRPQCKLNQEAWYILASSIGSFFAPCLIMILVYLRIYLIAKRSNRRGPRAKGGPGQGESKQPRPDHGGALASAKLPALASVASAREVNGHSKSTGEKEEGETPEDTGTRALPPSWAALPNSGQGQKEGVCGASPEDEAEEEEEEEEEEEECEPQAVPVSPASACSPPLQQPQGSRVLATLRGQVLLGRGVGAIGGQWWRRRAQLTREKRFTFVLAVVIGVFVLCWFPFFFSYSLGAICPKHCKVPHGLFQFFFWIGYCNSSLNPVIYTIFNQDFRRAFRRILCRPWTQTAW

human β1‐adrenoceptor [5] = target: T4, human β1‐adrenoceptor (Homo sapiens, UniProt P08588); conditions: for Log KD β1: mean ± s.e.mean
T4 sequence (P08588 whole entry): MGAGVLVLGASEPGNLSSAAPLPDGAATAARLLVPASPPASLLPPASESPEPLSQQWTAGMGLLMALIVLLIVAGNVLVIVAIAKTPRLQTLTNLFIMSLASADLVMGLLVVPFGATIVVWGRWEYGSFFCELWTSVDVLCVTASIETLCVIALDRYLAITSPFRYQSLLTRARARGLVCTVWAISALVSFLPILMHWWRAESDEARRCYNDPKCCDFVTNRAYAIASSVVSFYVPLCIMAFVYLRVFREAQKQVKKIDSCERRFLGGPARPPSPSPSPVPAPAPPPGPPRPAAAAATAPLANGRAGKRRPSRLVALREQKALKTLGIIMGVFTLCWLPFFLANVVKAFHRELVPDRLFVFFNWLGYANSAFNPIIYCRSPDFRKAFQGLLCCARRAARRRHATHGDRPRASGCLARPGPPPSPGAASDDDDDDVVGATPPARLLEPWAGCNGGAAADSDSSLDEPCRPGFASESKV

human α2C‐adrenoceptor [6] = target: T2, human α2C‐adrenoceptor; test: ^3H‐rauwolscine whole cell competition binding, CHO‐α2C cells
human α1A‐adrenoceptor = target: human α1A‐adrenoceptor; parameters: method as in PMID 32608144; conditions: identical whole cell method; ref [33]; read-out: α1A‐adrenoceptor affinity; cited from earlier work
human β1‐adrenoceptor [7] = target: T4, human β1‐adrenoceptor; test: cell-based
human α2B‐adrenoceptor [8] = target: T3, human α2B‐adrenoceptor; test: ^3H‐rauwolscine whole cell competition binding, CHO‐α2B cells
human α2A‐adrenoceptor [9] = target: T1, human α2A‐adrenoceptor; test: cell-based
human α2C‐adrenoceptor [10] = target: T2, human α2C‐adrenoceptor; test: cell-based
human α2A‐adrenoceptors = conditions: cited from earlier work
human α2B‐adrenoceptor [11] = target: T3, human α2B‐adrenoceptor; test: ^3H‐RX821002 whole cell competition binding, CHO‐α2B cells
human α2A‐adrenoceptor [12] = target: T1, human α2A‐adrenoceptor; test: ^3H‐RX821002 whole cell competition binding, CHO‐α2A cells
human α2C‐adrenoceptor [13] = target: T2, human α2C‐adrenoceptor; test: ^3H‐RX821002 whole cell competition binding, CHO‐α2C cells; conditions: ^3H‐RX821002 as radioligand; living CHO cells; log values, mean ± s.e.mean
[14] = ^3H‐CGP12177 whole cell binding, log values, mean ± s.e.mean, ^app = apparent KD, 'no binding to' = log top concentration
[15] = ^3H‐CGP12177 whole cell binding, log values, ^app = apparent KD, 'no binding to' = log top concentration
[16] = this study, read-out: β2‐adrenoceptor affinity

Chain of human β2‐adrenoceptor (P07550 whole entry): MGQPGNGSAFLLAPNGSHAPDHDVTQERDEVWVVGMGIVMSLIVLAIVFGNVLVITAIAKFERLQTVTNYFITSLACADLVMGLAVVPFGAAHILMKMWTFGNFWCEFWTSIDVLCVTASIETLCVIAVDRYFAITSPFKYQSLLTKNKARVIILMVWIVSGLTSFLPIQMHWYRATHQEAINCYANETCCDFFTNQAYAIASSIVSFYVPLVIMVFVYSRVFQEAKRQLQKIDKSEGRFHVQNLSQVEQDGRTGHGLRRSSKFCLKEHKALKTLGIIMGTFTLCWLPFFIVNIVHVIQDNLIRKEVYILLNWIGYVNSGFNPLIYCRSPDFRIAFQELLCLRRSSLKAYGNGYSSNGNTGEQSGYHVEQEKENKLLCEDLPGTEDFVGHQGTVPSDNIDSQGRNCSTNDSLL

Cc1c[nH]c(=O)n(CCCN2CCN(c3ccccc3OCC(F)(F)F)CC2)c1=O [RS100329]
Log KD β2 (human β2‐adrenoceptor; [14]): −4.77 ± 0.07
Kd (human α2A‐adrenoceptor [1]): 0.1 µM
Selectivity ratio α2A vs α2B (higher affinity for α2A) (human α2A‐adrenoceptor [2]; ratio of KD values): 3.4
Kd (human α2C‐adrenoceptor [3]): 0.0151 µM
Kd (human α2B‐adrenoceptor [4]): 0.339 µM
IC50 (log) β1, IC50>top concentration used (human β1‐adrenoceptor [5]; ^3H‐CGP12177, log value): IC50>−3
Selectivity ratio α2A vs α2C (higher affinity for α2C) (human α2C‐adrenoceptor [6]; ratio of KD values): 6.6
Selectivity ratio α2B vs α2C (higher affinity for α2C) (human α2C‐adrenoceptor [6]; ratio of KD values): 22.4

CN1CCN(c2ccc(Nc3c4ccccc4nc4ccccc34)cc2)CC1 [JP1302]
Kd (human α1A‐adrenoceptor): 0.617 µM
Log KD β2 (human β2‐adrenoceptor; [14]): −5.58 ± 0.08
IC50 (log) β1, IC50>top concentration used (human β1‐adrenoceptor [5]): IC50>−4
α1A‐adrenoceptor affinity less than α2C affinity (human α2C‐adrenoceptor [6]): 5 fold

Cc1nc2n(c(=O)c1CCN1CCC(c3noc4cc(F)ccc34)CC1)CCCC2O (stereo not drawn) [paliperidone]
Kd (human α1A‐adrenoceptor): 0.004 µM
IC50 (human β2‐adrenoceptor; ^3H‐CGP12177, log value, read-out: IC50 (log) β2, IC50>top concentration used (converted)): > 31.6 µM
IC50 (human β1‐adrenoceptor [7]): > 31.6 µM
Kd (human α2C‐adrenoceptor [6]): 0.014 µM

O=C1c2ccccc2CCC1CNCCc1ccc(O)cc1 (stereo not drawn) [HEAT]
IC50 (log) β2, IC50>top concentration used (human β2‐adrenoceptor; ^3H‐CGP12177, log value): IC50>−4
Selectivity ratio α2A vs α2B (higher affinity for α2B) (human α2B‐adrenoceptor [8]; ratio of KD values): 1.9
Kd (human α2A‐adrenoceptor [1]): 0.0355 µM
Kd (human α2C‐adrenoceptor [3]): 0.00891 µM
Kd (human α2B‐adrenoceptor [4]): 0.0191 µM
IC50 (log) β1, IC50>top concentration used (human β1‐adrenoceptor [5]; ^3H‐CGP12177, log value): IC50 ~−4.5
Selectivity ratio α2A vs α2C (higher affinity for α2C) (human α2C‐adrenoceptor [6]; ratio of KD values): 4.0
Selectivity ratio α2B vs α2C (higher affinity for α2C) (human α2C‐adrenoceptor [6]; ratio of KD values): 2.1

COc1cccc2c1CCC[C@H]2CN(C)CCc1ccc2ccoc2c1.CS(=O)(=O)O [A80426]
Log KD β2 (human β2‐adrenoceptor; [14]): −5.88 ± 0.04
Kd (human α2C‐adrenoceptor [3]): 0.0347 µM
Kd (human α2B‐adrenoceptor [4]): 0.302 µM

O=C1Nc2ccccc2C2=NC(CN3CCN(c4ccccc4)CC3)CN12 (stereo not drawn) [2‐PMDQ]
IC50 (log) β2, IC50>top concentration used (human β2‐adrenoceptor; ^3H‐CGP12177, log value): IC50>−4
Kd (human α2A‐adrenoceptor [1]): 0.148 µM
Selectivity ratio α2A vs α2B (higher affinity for α2A) (human α2A‐adrenoceptor [2]; ratio of KD values): 4.9
Kd (human α2C‐adrenoceptor [3]): 0.0851 µM
Kd (human α2B‐adrenoceptor [4]): 0.724 µM
Log KD β1 (human β1‐adrenoceptor [5]; [15]): No binding −4
Selectivity ratio α2A vs α2C (higher affinity for α2C) (human α2C‐adrenoceptor [6]; ratio of KD values): 1.7
Selectivity ratio α2B vs α2C (higher affinity for α2C) (human α2C‐adrenoceptor [6]; ratio of KD values): 8.5

COc1ccc(NC(=O)N2CCc3c2ccc2ccccc32)cc1N1CCN(C)CC1 [S32212]
IC50 (log) β2, IC50>top concentration used (human β2‐adrenoceptor; ^3H‐CGP12177, log value): IC50>−5
selectivity α2B versus α2C (human α2B‐adrenoceptor [8]): less than 5 fold
Selectivity ratio α2A vs α2B (higher affinity for α2B) (human α2B‐adrenoceptor [8]; ratio of KD values): 15.1
Selectivity ratio α2B vs α2C (higher affinity for α2B) (human α2B‐adrenoceptor [8]; ratio of KD values): 4.2
Kd (human α2A‐adrenoceptor [1]): 0.24 µM
Kd (human α2C‐adrenoceptor [3]): 0.0661 µM
Kd (human α2B‐adrenoceptor [4]): 0.0158 µM
IC50 (log) β1, IC50>top concentration used (human β1‐adrenoceptor [5]; ^3H‐CGP12177, log value): IC50>−5
Selectivity ratio α2A vs α2C (higher affinity for α2C) (human α2C‐adrenoceptor [6]; ratio of KD values): 3.6

C[C@H](Cc1cc2c(c(C(N)=O)c1)N(CCCO)CC2)NCCOc1ccccc1OCC(F)(F)F [silodosin]
Kd (human α1A‐adrenoceptor): 0.00025 µM
Kd (human β2‐adrenoceptor; [16]): ~0.03 µM
IC50 (human α2B‐adrenoceptor [8]): > 10 µM
Kd (human α2A‐adrenoceptor [9]): 3.24 µM
IC50 (human β1‐adrenoceptor [7]): > 10 µM
Kd (human α2C‐adrenoceptor [10]): 0.759 µM

CN1CCN2c3ncccc3Cc3ccccc3C2C1 (stereo not drawn) [mirtazepine]
Kd (human α2A‐adrenoceptors; ref [51], read-out: affinity at human α2A receptors): 0.079 to 0.126 µM

COc1cccc(OC)c1OCCNCC1COc2ccccc2O1 (stereo not drawn) [WB4104]
Log KD α2B (human α2B‐adrenoceptor [11]): −6.88 ± 0.05
Log KD α2A (human α2A‐adrenoceptor [12]; ^3H‐RX821002 as radioligand, living CHO cells, log values, mean ± s.e.mean, ^app = apparent KD from extrapolated curve): −7.58 ± 0.05
IC50 (log) β2, IC50>top concentration used (human β2‐adrenoceptor; ^3H‐CGP12177, log value): IC50>−4
Log KD α2B (human α2B‐adrenoceptor [8]): −6.77 ± 0.05
Log KD α2A (human α2A‐adrenoceptor [2]): −7.55 ± 0.05
Selectivity ratio α2A vs α2B (higher affinity for α2A) (human α2A‐adrenoceptor [2]): 6.0
Log KD α2C (human α2C‐adrenoceptor [13]): −8.24 ± 0.13
IC50 (log) β1, IC50>top concentration used (human β1‐adrenoceptor [5]; ^3H‐CGP12177, log value): IC50>−4
Log KD α2C (human α2C‐adrenoceptor [6]): −8.17 ± 0.05
Selectivity ratio α2A vs α2C (higher affinity for α2C) (human α2C‐adrenoceptor [6]): 4.2
Selectivity ratio α2B vs α2C (higher affinity for α2C) (human α2C‐adrenoceptor [6]): 25.1

COc1ccccc1OCCNCC(O)COc1cccc2[nH]c3ccccc3c12 (stereo not drawn) [carvedilol]
Kd (human α2A‐adrenoceptor [12]): 0.263 µM
Kd (human α2A‐adrenoceptor [9]): 0.288 µM

COc1ccccc1N1CCN(CC2CN3C(=O)N(C)c4ccccc4C3=N2)CC1 (stereo not drawn) [2‐MPMDQ]
IC50 (log) β2, IC50>top concentration used (human β2‐adrenoceptor; ^3H‐CGP12177, log value): IC50>−5
Kd (human α2A‐adrenoceptor [1]): 0.162 µM
Selectivity ratio α2A vs α2B (higher affinity for α2A) (human α2A‐adrenoceptor [2]; ratio of KD values): 7.1
Kd (human α2C‐adrenoceptor [3]): 0.0316 µM
Kd (human α2B‐adrenoceptor [4]): 1.15 µM
IC50 (log) β1, IC50>top concentration used (human β1‐adrenoceptor [5]; ^3H‐CGP12177, log value): IC50>−5
Selectivity ratio α2A vs α2C (higher affinity for α2C) (human α2C‐adrenoceptor [6]; ratio of KD values): 5.1
Selectivity ratio α2B vs α2C (higher affinity for α2C) (human α2C‐adrenoceptor [6]; ratio of KD values): 36.3

CCS(=O)(=O)N1CCC[C@@H]2CN3CCc4cc(OC)ccc4[C@@H]3C[C@@H]21 [RS79948]
IC50 (log) β2, IC50>top concentration used (human β2‐adrenoceptor; ^3H‐CGP12177, log value): IC50>−3
Kd (human α2A‐adrenoceptor [1]): 0.00117 µM
Selectivity ratio α2A vs α2B (higher affinity for α2A) (human α2A‐adrenoceptor [2]; ratio of KD values): 2.3
Kd (human α2C‐adrenoceptor [3]): 0.000437 µM
Kd (human α2B‐adrenoceptor [4]): 0.00269 µM
Log KD β1 (human β1‐adrenoceptor [5]; [15]): −3.84 ± 0.05
Selectivity ratio α2A vs α2C (higher affinity for α2C) (human α2C‐adrenoceptor [6]; ratio of KD values): 2.7
Selectivity ratio α2B vs α2C (higher affinity for α2C) (human α2C‐adrenoceptor [6]; ratio of KD values): 6.2

CN1CCc2cccc(Cl)c2CC1 [SKF86466]
Kd (human β2‐adrenoceptor; [16]): 0.25 µM
Log KD α2B (human α2B‐adrenoceptor [8]): −6.17 ± 0.047
Kd (human α2A‐adrenoceptor [2]): 0.513 µM
Kd (human β1‐adrenoceptor [7]): 1.2 µM
Kd (human α2A‐adrenoceptors; ref [23], read-out: human α2A‐affinity): 0.013 µM

COc1cc2nc(N3CCN(C(=O)c4ccco4)CC3)nc(N)c2cc1OC [prazosin]
Kd (human β2‐adrenoceptor; ^3H‐CGP12177 whole cell binding, log values, mean ± s.e.mean, ^app = apparent KD, 'no binding to' = log top concentration, read-out: Log KD β2 (converted)): 7.94 µM
Log KD β1 (human β1‐adrenoceptor [5]; [15]): No binding to −4
Log KD β1 (human β1‐adrenoceptor [5]; given as log KD (negative values), 3H-CGP12177 whole cell binding, CHO cells): No binding to -4
Kd (human α2A‐adrenoceptors; ref [6], read-out: affinity at human α2A‐adrenoceptors): 16 µM
Kd (human α2A‐adrenoceptors; ref [21], [28], read-out: affinity at human α2A‐adrenoceptors): 0.3 µM
